# T1: Dipeptidase 1 (Sus scrofa) (UniProt P22412)
# T1 sequence (whole entry): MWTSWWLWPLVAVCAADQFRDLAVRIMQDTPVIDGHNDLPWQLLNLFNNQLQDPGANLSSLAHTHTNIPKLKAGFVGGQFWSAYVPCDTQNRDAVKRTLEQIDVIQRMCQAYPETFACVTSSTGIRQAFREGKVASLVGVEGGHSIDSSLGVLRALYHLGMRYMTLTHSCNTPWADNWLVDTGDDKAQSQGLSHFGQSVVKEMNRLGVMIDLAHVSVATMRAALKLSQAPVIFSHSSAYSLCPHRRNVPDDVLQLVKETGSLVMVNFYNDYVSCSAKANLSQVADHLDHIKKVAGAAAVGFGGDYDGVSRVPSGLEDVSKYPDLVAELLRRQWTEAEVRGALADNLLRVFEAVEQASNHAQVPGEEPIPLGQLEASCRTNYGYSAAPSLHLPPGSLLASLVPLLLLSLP
# B1: Dipeptidase 1 (Sus scrofa), P22412 (protein)
# chain: MWTSWWLWPLVAVCAADQFRDLAVRIMQDTPVIDGHNDLPWQLLNLFNNQLQDPGANLSSLAHTHTNIPKLKAGFVGGQFWSAYVPCDTQNRDAVKRTLEQIDVIQRMCQAYPETFACVTSSTGIRQAFREGKVASLVGVEGGHSIDSSLGVLRALYHLGMRYMTLTHSCNTPWADNWLVDTGDDKAQSQGLSHFGQSVVKEMNRLGVMIDLAHVSVATMRAALKLSQAPVIFSHSSAYSLCPHRRNVPDDVLQLVKETGSLVMVNFYNDYVSCSAKANLSQVADHLDHIKKVAGAAAVGFGGDYDGVSRVPSGLEDVSKYPDLVAELLRRQWTEAEVRGALADNLLRVFEAVEQASNHAQVPGEEPIPLGQLEASCRTNYGYSAAPSLHLPPGSLLASLVPLLLLSLP
# Experiments:
# [1] = molecular target: T1, Dipeptidase 1 (Sus scrofa); test: The catalytic constant of the enzyme Renal dipeptidase was reported.
# [2] = molecular target: T1, Dipeptidase 1 (Sus scrofa); test: The double -reciprocal analysis of the pseudo-first -order inactivation rates verses the inhibitor concentrations were calculated for Renal dipeptidase
# [3] = molecular target: T1, Dipeptidase 1 (Sus scrofa); test: The double -reciprocal analysis of the pseudo-first -order inactivation rates verses the inhibitor concentrations were calculated for Inactivator of Renal dipeptidase
# [4] = molecular target: T1, Dipeptidase 1 (Sus scrofa); test: The catalytic constant of the enzyme Inactivator of Renal dipeptidase was reported.
# [5] = compound: C=C(NC(=O)CC#N)C(=O)O; test: Michaelis-Menten constant was reported for the compound against Inactivator of Renal dipeptidase
# [6] = substrate: C=C(CC(=O)CC#N)C(=O)O; test: (§1) Michaelis-Menten constant was reported for the compound against Renal dipeptidase
# [7] = substrate: C=C(NC(=O)CBr)C(=O)O; test: as §1
molecule,measurement,setting,value
C=C(NC(=O)CBr)C(=O)O,k cat,[1],32.3 min⁻¹
C=C(CC(=O)CC#N)C(=O)O,K inact,[2],0.151 min⁻¹
same,k cat,[1],33 min⁻¹
C=C(NC(=O)CC#N)C(=O)O,K inact,[3],0.277 min⁻¹
same,k cat,[4],15 min⁻¹
B1,Km,[5],416 µM
same,Km,[6],10.3 mM
same,Km,[7],740 µM

# — ChEMBL document CHEMBL1125268, “Targeting renal dipeptidase (dehydropeptidase I) for inactivation by mechanism-based inactivators” (J Med Chem, 1991)
